The assay deals with phosphorylated active hERK2 enzyme (Homo sapiens (Human), UniProt P28482). Kind of assay: Active Human ERK2 (hERK2) Activity Assay (IMAP-FP). Type of assay: biochemical. Conditions: Table 6, 0.5 nM hERK2, 30 μM ATP, 10 point titration, read-out: AERK2 IC50. The method in brief: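 IMAP fluorescence-polarization kinase assay: 0.5 nM activated hERK2 with 900 nM unlabeled plus 80 nM labeled peptide and 30 μM ATP, reacted 60 min. Quenched with IMAP beads in binding buffer with 24 mM NaCl; FP read after 60 min equilibration.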
Chain of phosphorylated active hERK2 enzyme (P28482 whole entry): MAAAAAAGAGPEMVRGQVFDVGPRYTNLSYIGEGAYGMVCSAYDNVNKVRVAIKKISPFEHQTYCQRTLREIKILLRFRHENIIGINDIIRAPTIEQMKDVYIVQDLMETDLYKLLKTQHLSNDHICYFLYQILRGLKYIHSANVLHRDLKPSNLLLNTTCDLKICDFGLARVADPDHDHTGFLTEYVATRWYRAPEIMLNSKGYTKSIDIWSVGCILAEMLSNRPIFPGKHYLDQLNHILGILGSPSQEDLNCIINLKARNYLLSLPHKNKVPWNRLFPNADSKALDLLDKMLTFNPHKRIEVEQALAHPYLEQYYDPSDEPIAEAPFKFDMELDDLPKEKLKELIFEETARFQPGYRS

Regarding `Nc1n[nH]c2cc(NC(=O)NC3COc4ccccc4C3)ncc12` (centres unmarked) [Example 257, 1-(3-amino-1H-pyrazolo[4,3-c]pyridin-6-yl)-3-(3,4-dihydro-2H-chromen-3-yl)urea], the IC50 (commonly the point on the concentration scale where inhibition reaches its midpoint) was 37.1 nM.
In the case of `Nc1n[nH]c2cc(NC(=O)N[C@@H]3CCOc4ccccc43)ncc12` [Example 258, 1-(3-amino-1H-pyrazolo[4,3-c]pyridin-6-yl)-3-[(4R)-3,4-dihydro-2H-chromen-4-yl]-urea] it was 103 nM.
In the case of `Nc1n[nH]c2cc(NC(=O)NC3COc4ccccc43)ncc12` (centres unmarked) [Example 259, 1-(3-amino-1H-pyrazolo[4,3-c]pyridin-6-yl)-3-(2,3-dihydro-1-benzofuran-3-yl)-urea], the IC50 was 325 nM.
In the case of `Nc1n[nH]c2cc(NC(=O)N[C@@H](c3ccccc3)C3(O)CCCC3)ncc12` [Example 260, 1-(3-amino-1H-pyrazolo[4,3-c]-pyridin-6-yl)-3-[(S)-(1-hydroxy-cyclopentyl)-(phenyl)methyl]-urea] it was 0.4 nM.
In the case of `Nc1n[nH]c2cc(NC(=O)NC3CCCC3c3ccccc3)ncc12` (centres unmarked) [Example 261, 1-(3-amino-1H-pyrazolo[4,3-c]-pyridin-6-yl)-3-(2-phenylcyclopentyl)urea] it was 6 nM; in that of `CCOc1ncccc1CNC(=O)Nc1cc2[nH]nc(N)c2cn1` [Example 262, 1-(3-amino-1H-pyrazolo[4,3-c]pyridin-6-yl)-3-[(2-ethoxypyridin-3-yl)methyl]urea], 20.7 nM.
In the case of `CN(C)C[C@H](NC(=O)Nc1cc2[nH]nc(N)c2cn1)c1ccccc1` [Example 263, 1-(3-amino-1H-pyrazolo[4,3-c]-pyridin-6-yl)-3-[(1R)-2-(dimethylamino)-1-phenylethyl]urea] it was 127 nM; in that of `Nc1n[nH]c2cc(NC(=O)NCc3ccc(F)c(Cl)c3)ncc12` [Example 264, 1-(3-amino-1H-pyrazolo[4,3-c]-pyridin-6-yl)-3-(3-chloro-4-fluorobenzyl)urea], 940 nM.
`Nc1n[nH]c2cc(NC(=O)NCc3cccc(F)c3)ncc12` [Example 265, 1-(3-amino-1H-pyrazolo[4,3-c]-pyridin-6-yl)-3-(3-fluorobenzyl)urea]: the half-inhibitory concentration (IC50) was 24.5 nM.
In the case of `Cc1cccc(Cl)c1CNC(=O)Nc1cc2[nH]nc(N)c2cn1` [Example 266, 1-(3-amino-1H-pyrazolo[4,3-c]pyridin-6-yl)-3-(2-chloro-6-methylbenzyl)urea] it was 13.8 nM.
In the case of `Nc1n[nH]c2cc(NC(=O)NCc3ccccc3OC(F)F)ncc12` [Example 267, 1-(3-amino-1H-pyrazolo[4,3-c]pyridin-6-yl)-3-[2-(difluoro-methoxy)benzyl]-urea] it was 5.3 nM; in that of `COc1ccccc1CNC(=O)Nc1cc2[nH]nc(N)c2cn1` [Example 268, 1-(3-amino-1H-pyrazolo[4,3-c]pyridin-6-yl)-3-(2-methoxy-benzyl)urea], 10.7 nM.
In the case of `COc1cccc(F)c1CNC(=O)Nc1cc2[nH]nc(N)c2cn1` [Example 269, 1-(3-amino-1H-pyrazolo[4,3-c]pyridin-6-yl)-3-(2-fluoro-6-methoxy-benzyl)urea] it was 3.3 nM.
With `C[C@@H](NC(=O)Nc1cc2[nH]nc(N)c2cn1)c1cccc(F)c1` [Example 270, 1-(3-amino-1H-pyrazolo[4,3-c]pyridin-6-yl)-3-[(1R)-1-(3-fluorophenyl)ethyl]urea], the half-maximal inhibitory concentration (IC50) came out at 3.2 nM.
In the case of `C[C@@H](NC(=O)Nc1cc2[nH]nc(N)c2cn1)c1ccc(F)c(Cl)c1` [Example 271, 1-(3-amino-1H-pyrazolo[4,3-c]pyridin-6-yl)-3-[(1R)-1-(3-chloro-4-fluorophenyl)-ethyl]urea] it was 17.3 nM; in that of `C[C@@H](NC(=O)Nc1cc2[nH]nc(N)c2cn1)c1cccc(Cl)c1` [Example 272, 1-(3-amino-1H-pyrazolo[4,3-c]pyridin-6-yl)-3-[(1R)-1-(3-chloro-phenyl)ethyl]urea], 5.6 nM; in that of `CC[C@@H](NC(=O)Nc1cc2[nH]nc(N)c2cn1)c1ccc(Cl)cc1` [Example 273, 1-(3-amino-1H-pyrazolo[4,3-c]pyridin-6-yl)-3-[(1R)-1-(4-chloro-phenyl)propyl]urea], 2.6 nM.
In the case of `CN(C)c1ncccc1CNC(=O)Nc1cc2[nH]nc(N)c2cn1` [Example 274, 1-(3-amino-1H-pyrazolo[4,3-c]-pyridin-6-yl)-3-{[2-(dimethylamino)-pyridin-3-yl]-methyl}urea] it was 32.4 nM; in that of `CC(NC(=O)Nc1cc2[nH]nc(N)c2cn1)c1ccc(F)c(F)c1` (centres unmarked) [Example 275, 1-(3-amino-1H-pyrazolo[4,3-c]-pyridin-6-yl)-3-[1-(3,4-difluorophenyl)-ethyl]urea], 4.6 nM.
With `Cc1cc([C@@H](C)NC(=O)Nc2cc3[nH]nc(N)c3cn2)ccc1Cl` [Example 276, 1-(3-amino-1H-pyrazolo[4,3-c]pyridin-6-yl)-3-[(1R)-1-(4-chloro-3-methylphenyl)-ethyl]urea], the IC50 came to 2.3 nM.
In the case of `CN1C[C@@H](NC(=O)Nc2cc3[nH]nc(N)c3cn2)[C@H](c2ccccc2)C1` [Example 277, 1-(3-amino-1H-pyrazolo[4,3-c]pyridin-6-yl)-3-[(3S,4R)-1-methyl-4-phenylpyrrolidin-3-yl]urea] it was 3.2 nM; in that of `CCNc1n[nH]c2cc(NC(=O)NCc3ncccc3Cl)ncc12` [Example 278, 1-[(3-chloro-pyridin-2-yl)-methyl]-3-[3-(ethylamino)-1H-pyrazolo[4,3-c]-pyridin-6-yl]urea], 21.8 nM.
In the case of `CCNc1n[nH]c2cc(NC(=O)NCc3ncccc3F)ncc12` [Example 279, 1-[3-(ethylamino)-1H-pyrazolo[4,3-c]pyridin-6-yl]-3-[(3-fluoropyridin-2-yl)methyl]urea] it was 63.4 nM.
In the case of `CCNc1n[nH]c2cc(NC(=O)NC(C)c3ccc(C)nc3)ncc12` (centres unmarked) [Example 280, 1-[3-(ethylamino)-1H-pyrazolo[4,3-c]pyridin-6-yl]-3-[1-(6-methyl-pyridin-3-yl)-ethyl]urea] it was 143 nM; in that of `CCNc1n[nH]c2cc(NC(=O)NC(C)c3cc(C)ccn3)ncc12` (centres unmarked) [Example 281, 1-[3-(ethylamino)-1H-pyrazolo[4,3-c]pyridin-6-yl]-3-[1-(4-methyl-pyridin-2-yl)-ethyl]urea], 98.3 nM; in that of `CCNc1n[nH]c2cc(NC(=O)NC(C)c3ccc(F)nc3)ncc12` (centres unmarked) [Example 282, 1-[3-(ethylamino)-1H-pyrazolo[4,3-c]pyridin-6-yl]-3-[1-(6-fluoropyridin-3-yl)ethyl]urea], 34.2 nM.
Regarding `CCNc1n[nH]c2cc(NC(=O)NC(C)c3cccnc3)ncc12` (centres unmarked) [Example 283, 1-[3-(ethylamino)-1H-pyrazolo[4,3-c]pyridin-6-yl]-3-(1-pyridin-3-ylethyl)urea], the IC50 worked out at 44.4 nM.
In the case of `CCNc1n[nH]c2cc(NC(=O)NC(C)c3ccc(F)cn3)ncc12` (centres unmarked) [Example 284] it was 33 nM; in that of `COC(=O)Nc1n[nH]c2cc(NC(=O)N[C@H](C)c3ccc(Cl)cc3)ncc12` [Example 286, methyl [6-({[(1R)-1-(4-chlorophenyl)-ethyl]carbamoyl}-amino)-1H-pyrazolo[4,3-c]pyridin-3-yl]carbamate], 5.2 nM.

The values above are taken from patent publication US9233979B2, “Compounds that are ERK inhibitors” (Merck Sharp & Dohme Corp., priority 2012, dated 2016).
